Read-outs that look alike come from different tables or passages of the source.
Tests used:
sepsis = settings: cited from earlier work
[1] = test system: arachidonic acid-induced brain inflammation; assay: brain inflammation induced by arachidonic acid in the subarachnoid space (CSF volume and WBC count in CSF); assay type: in vivo, rat
Method: Male rats, approximately 350–400 g, were anesthetized with sodium pentobarbital at a dose of 50 mg/kg intraperitoneally (i.p.). Animals were then placed in a stereotaxic unit. Fur from the top of the head to neck was shaved. The study area was disinfected with 70% ethanol followed by a 10% providone-iodine solution. Skin and muscle over the cervical cord were dissected until cervical vertebrae were exposed. A hole was made using a 23G3/4 needle passing through the dura via the cisterna magna. One end of a 2–3 mm PE10 cannula (0.011 “I.D., 0.007” thick, 0.024” O.D., 6.5 cm long) was inserted into the subarachnoid space at the cervical cord so as to avoid damage to neuronal tissue (FIG. 3). The cannula was fixed with cyanoacrylic glue to the peripheral tissue. […] The cannula filled with CSF immediately after the cannulation. Air was infused to inject AA to the subarachnoid space. The muscles and skin were closed with surgical staples. The rat was then removed from the stereotaxic unit and placed on a heat pad and continuously monitored. […] If the effects of the anesthesia appeared to be wearing off, an additional 0.05–0.1 ml pentobarbital (50 mg/ml, i.p.) dose was administered. If at any time during the experiment, the animal appeared to be in pain or distress, the study was immediately stopped and the animal was euthanized. In the present study, the volume (μl) of cerebrospinal fluid (CSF) and white blood cell (WBC) counts in CSF was measured every thirty minutes for 11 hours from the same rat. One side of the cannula (PE10) was inserted into the subarachnoid space under pentobarbital anesthesia, avoiding neuronal damage (FIG. 3). If the brain tissue is damaged, the volume of CSF and WBC increases immediately without the administration of arachidonic acid. Since there are no WBC in the CSF in the normal rat, only rats that had no WBC in the CSF immediately after the cannulation were used. Another side of the cannula remained open and was used for the administration of nociceptive stimuli (arachidonic acid, LPS, dextran, etc.) and subsequently for collecting the CSF every thirty minutes during the experiment. The CSF volume was measured using a micropipette and WBC in the CSF were counted by means of a hemacytometer.

[2] = test system: interleukin-6 induced leukocyte in CSF; assay: interleukin-6 induced white blood cell infiltration into CSF (sepsis model); assay type: in vivo, dog; settings: 300, 500, 1000 mg/kg p.o. 30 minutes before interleukin-6; for three days
Text: TNF-α, interleukin-1 and interleukin-6 produced by activated macrophages at the site of the nociceptive stimuli play a particularly important role in mediating acute-phase inflammation as well as sepsis. In fact, proinflammatory cytokines administered to the outside of the blood brain barrier through the chronically in-dwelling intracerebroventricular catheter attached to an Ommaya reservoir increase white blood cell count (characterized by neutrophilic response and lymphocyte respectively) in the cerebrospinal fluid in dogs. The inflammation induced by interleukin-6, was longer lasting (starting from 2 hours, peak time are 10–24 hours lasting 24–72 hours) than that induced by interleukin-1β and TNF-α. In the present studies presented in the Examples hereinbelow, the inflammation caused by interleukin-6 was used as a sepsis model, measuring the amount of infiltrating white blood cells in the cerebrospinal fluid.

[3] = test system: dextran-induced paw edema; assay: dextran-induced rat paw edema; assay type: in vivo
Text: Therefore, it was expected that such a mechanism might also come into play at the central nervous system level.

[4] = mice, cited from earlier work
[5] = rats, cited from earlier work
[6] = cited from earlier work
focal cerebral ischemia = settings: cited from earlier work
[7] = cited from earlier work; remark: listed apart in the source
[8] = test system: ischemia (occlusion of both carotid arteries); assay: rat ischemia model, reversible 30 minute occlusion of both carotid arteries followed by reperfusion; assay type: in vivo; settings: 450 mg/kg i.p. 30 minutes before the occlusion

C[C@]12CCC(=O)C=C1CC[C@@H]1[C@@H]2[C@@H](O)C[C@@]2(C)[C@H]1CC[C@]2(O)C(=O)CO [Hydrocortisone]
Effect (sepsis; large dose (100 mg i.v. then 0.18/kg/hr)): none or worse | Effect (sepsis; small dose (100 mg i.v./every 8 hours)): effective

O=C(Nc1cccc2c(=O)cc(-c3nnn[nH]3)oc12)c1ccc(OCCCCc2ccccc2)cc1 [pranlukast]
effect on brain inflammation caused by a large dose of arachidonic acid ([1]; arachidonic acid 6.25 μg/2.0 μl, pranlukast 450 mg/kg p.o.): not inhibited by pranlukast (450 mg/kg; p.o.) but was attenuated | time until white blood cell count returned to normal (=zero) after arachidonic acid ([1]; arachidonic acid 6.25 μg/2.0 μl, pranlukast 450 mg/kg p.o., 5 days without pranlukast): 36 h | inhibition of the increase of CSF volume ([1]; pranlukast 450 mg/kg i.p. thirty minutes before arachidonic acid 3.25 μg/2 μl, n=4): completely inhibited | inhibition of inflammation caused by arachidonic acid ([1]; pranlukast 450 mg/kg i.p., arachidonic acid 3.25 μg/2 μl): completely inhibits | inhibition of interleukin-6 induced leukocyte in CSF [2]: completely inhibited | inhibition of dextran-induced paw edema ([3]; 450 mg/kg, administered intraperitoneally): completely inhibited | inhibition of dextran-caused paw edema ([3]; 450 mg/kg, administered orally (FIG. 2)): completely inhibited | dose dependence of inhibition of dextran-induced paw edema ([3]; rat, in vivo): dose-dependent fashion | LD50 ([4]; p.o.): > 2000 mg/kg | LD50 ([4]; s.c.): > 2000 mg/kg | LD50 ([5]; p.o.): > 2000 mg/kg | LD50 ([5]; s.c.): > 2000 mg/kg | time the maximum blood concentration was maintained ([6]; 20 mg/kg p.o.): at least 5 hours | time to maximum blood concentration ([6]; 20 mg/kg p.o.): within one hour | pranlukast in blood 24 hours after administration ([6]; low doses (20 mg/kg p.o.)): no pranlukast was observed | effect on death of brain cells (focal cerebral ischemia; 0.003-1.0 mg/kg i.p. 30 minutes before MCA occlusion and 2 hours after reperfusion, evaluated 24 hours after reperfusion): inhibited the death of brain cells | most effective dose (focal cerebral ischemia; Zhang et al (2002)): 0.1 mg/kg | behavior, changes in body weight and food intake compared with control group ([7]; single 30-1000 mg/kg p.o. and repeated 30-1000 mg/kg/day p.o. for three and six months): normal | urine examination and histopathological examinations ([7]; single and repeated administration): normal | survival [8]: One of 4–5 rats survived for one week

— patent US7148248B2, “Method of treating or inhibiting the development of brain inflammation and sepsis” (priority 2002, dated 2006)
